Columns and labels:
[1] = target: T1, FAAH (Mus musculus, UniProt O08914); assay: In vitro competitive activity-based protein profiling (mouse), FAAH gel band; assay type: biochemical; conditions: for IC50: mouse; for inhibition at 1 µM: read-out: FAAH % inh. 1 μM
T1 construct: Proteomes (mouse brain membrane fraction or cell lysates); from tissue; host or cells: mouse brain membrane fraction (or cell lysates)
T1 sequence (O08914 1-579): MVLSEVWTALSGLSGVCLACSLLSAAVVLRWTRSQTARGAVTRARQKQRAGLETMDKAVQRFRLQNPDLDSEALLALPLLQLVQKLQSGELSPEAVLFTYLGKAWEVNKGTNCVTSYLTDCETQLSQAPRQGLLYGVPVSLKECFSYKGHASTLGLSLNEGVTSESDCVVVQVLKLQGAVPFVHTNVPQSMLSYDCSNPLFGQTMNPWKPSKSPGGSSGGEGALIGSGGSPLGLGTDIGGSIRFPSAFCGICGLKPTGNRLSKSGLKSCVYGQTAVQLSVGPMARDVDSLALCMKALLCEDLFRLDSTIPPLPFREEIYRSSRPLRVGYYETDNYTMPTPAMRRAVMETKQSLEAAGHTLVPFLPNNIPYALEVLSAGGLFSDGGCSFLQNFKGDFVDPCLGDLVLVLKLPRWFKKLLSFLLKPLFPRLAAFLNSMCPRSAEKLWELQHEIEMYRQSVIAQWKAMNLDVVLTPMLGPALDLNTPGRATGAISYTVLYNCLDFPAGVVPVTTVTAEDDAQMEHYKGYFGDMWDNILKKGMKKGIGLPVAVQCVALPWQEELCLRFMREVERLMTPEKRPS
How it was run: (§1)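 Competitive ABPP: inhibitors at varying concentrations were given 30 min at 37 °C with mouse brain membranes or cell lysates (1.0 mg/mL total protein) before 30 min labelling by FP-Rh or HT-01 (stock 50 μM in DMSO). Residual hydrolase activity read as in-gel fluorescence of MAGL and FAAH bands.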

[2] = target: T2, MAGL (Mus musculus, UniProt O35678); assay: In vitro competitive activity-based protein profiling (mouse), MAGL gel band; assay type: biochemical; conditions: for IC50: mouse; for inhibition at 1 µM: read-out: MAGL % inh. 1 μM
T2 construct: Proteomes (mouse brain membrane fraction or cell lysates); from tissue; host or cells: mouse brain membrane fraction (or cell lysates)
T2 sequence (O35678 1-303): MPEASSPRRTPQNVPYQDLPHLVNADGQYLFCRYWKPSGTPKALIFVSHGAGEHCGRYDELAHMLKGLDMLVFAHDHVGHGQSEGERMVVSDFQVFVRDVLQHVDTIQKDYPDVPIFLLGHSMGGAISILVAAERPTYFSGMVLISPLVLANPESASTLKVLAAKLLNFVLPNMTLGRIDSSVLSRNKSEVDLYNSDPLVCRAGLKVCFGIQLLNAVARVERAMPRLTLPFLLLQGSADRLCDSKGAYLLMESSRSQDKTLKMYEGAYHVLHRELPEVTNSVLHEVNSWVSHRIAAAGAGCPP
How it was run: as §1

[3] = target: T2, MAGL; assay: Mouse brain proteomes from inhibitor treated mice (oral gavage, sacrificed 4 h after administration); assay type: in vivo; conditions: read-out: MAGL % inh. 5 mg/kg
How it was run: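 Wild-type C57Bl/6J mice got compound by oral gavage in polyethylene glycol vehicle. Brain proteomes were prepared 4 h after dosing and analyzed for serine hydrolase activity.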

[4] = target: T3, MAGL (Homo sapiens, UniProt Q99685); assay: In vitro competitive activity-based protein profiling (human), MAGL gel band; assay type: biochemical
T3 construct: Proteomes (human prefrontal cortex or cell membrane fractions); from tissue; host or cells: human prefrontal cortex (or cell membrane fractions)
T3 sequence (Q99685 1-303): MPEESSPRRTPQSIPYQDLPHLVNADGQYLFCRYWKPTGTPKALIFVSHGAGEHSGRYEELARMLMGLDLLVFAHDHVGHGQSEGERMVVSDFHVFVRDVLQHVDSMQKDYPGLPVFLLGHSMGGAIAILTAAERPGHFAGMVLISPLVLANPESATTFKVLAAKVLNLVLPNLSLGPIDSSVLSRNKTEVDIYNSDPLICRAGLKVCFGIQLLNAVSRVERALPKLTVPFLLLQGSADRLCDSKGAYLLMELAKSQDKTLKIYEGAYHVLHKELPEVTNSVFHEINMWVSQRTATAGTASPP
How it was run: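 Human prefrontal cortex or cell membrane proteomes (1.0-2.0 mg/mL protein) preincubated with inhibitors 30 min at 37° C, then labelled with FP-Rh or JW912 probe 30 min at room temperature. Residual MAGL activity read as fluorescent gel-band intensity after SDS-PAGE.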

Structure (SMILES) | IC50 [1] | inhibition at 1 µM [1] | IC50 [2] | inhibition at 1 µM [2] | inhibition at 5 mg/kg [3] | IC50 [4]
CC(=O)Nc1ccn(C(=O)N2CCN(Cc3ccc(C(F)(F)F)cc3N3CCC4(CCOCC4)C3)CC2)n1 [Example 45, N-(1-(4-(2-(8-oxa-2-azaspiro[4.5]decan-2-yl)-4-(trifluoromethyl)benzyl)piperazine-1-carbonyl)-1H-pyrazol-3-yl)acetamide] | 1 to 10 µM | 0 to 25% | ≤ 0.1 µM | ≥ 75% | 0 to 25% | 0.1 to 1 µM
CS(=O)(=O)Nc1ccn(C(=O)N2CCN(Cc3ccc(C(F)(F)F)cc3N3CCCC3)CC2)n1 [Example 188, N-(1-(4-(2-(pyrrolidin-1-yl)-4-(trifluoromethyl)benzyl)piperazine-1-carbonyl)-1H-pyrazol-3-yl) methanesulfonamide] | 1 to 10 µM | 0 to 25% | ≤ 0.1 µM | ≥ 75% | ≥ 75% | ≤ 0.1 µM
CS(=O)(=O)Nc1ccn(C(=O)N2CCC3(CCCN3Cc3ccc(C(F)(F)F)cc3N3CC4COCC4C3)CC2)n1 (centres unmarked) [Example 199, N-(1-(1-(2-(tetrahydro-1H-furo[3,4-c]pyrrol-5(3H)-yl)-4-(trifluoromethyl)benzyl)-1,8-diazaspiro[4.5]decane-8-carbonyl)-1H-pyrazol-3-yl) methanesulfonamide] | – | 0 to 25% | – | ≥ 75% | 25 to 50% | ≤ 0.1 µM
CS(=O)(=O)Nc1ccn(C(=O)N2CCN(Cc3ccc(Cl)c(N4CCN(C5CC5)CC4)c3)CC2)n1 [Example 202, N-(1-(4-(4-chloro-3-(4-cyclopropylpiperazin-1-yl)benzyl)piperazine-1-carbonyl)-1H-pyrazol-3-yl) methanesulfonamide] | – | 0 to 25% | – | ≥ 75% | 0 to 25% | ≤ 0.1 µM
CS(=O)(=O)Nc1ccn(C(=O)N2CCN(Cc3ccc(Cl)c(N4CC5CN(S(C)(=O)=O)CC5C4)c3)CC2)n1 (centres unmarked) [Example 217, N-(1-(4-(4-chloro-3-(5-(methylsulfonyl)hexahydropyrrolo[3,4-c]pyrrol-2(1H)-yl)benzyl)piperazine-1-carbonyl)-1H-pyrazol-3-yl) methanesulfonamide] | – | 0 to 25% | – | ≥ 75% | 0 to 25% | ≤ 0.1 µM
CS(=O)(=O)Nc1ccn(C(=O)N2CCN(Cc3ccc(C(F)(F)F)cc3N3CCC(C(=O)O)CC3)CC2)n1 [Example 186, 1-(2-((4-(3-(methylsulfonamido)-1H-pyrazole-1-carbonyl)piperazin-1-yl)methyl)-5-(trifluoromethyl)phenyl)piperidine-4-carboxylic acid] | 1 to 10 µM | 0 to 25% | 0.1 to 1 µM | ≥ 75% | 0 to 25% | 0.1 to 1 µM
CS(=O)(=O)Nc1ccn(C(=O)N2CCN(Cc3ccc(Cl)c(-c4ccc(C(F)(F)F)nc4)c3)CC2)n1 [Example 233, N-(1-(4-(4-chloro-3-(6-(trifluoromethyl)pyridin-3-yl)benzyl)piperazine-1-carbonyl)-1H-pyrazol-3-yl) methanesulfonamide] | – | 0 to 25% | – | ≥ 75% | 25 to 50% | ≤ 0.1 µM
CC(=O)N1CCC2(CC1)CCN(c1cc(C(F)(F)F)ccc1CN1CCN(C(=O)n3ccc(NS(C)(=O)=O)n3)CC1)C2 [Example 232, N-(1-(4-(2-(8-acetyl-2,8-diazaspiro[4.5]decan-2-yl)-4-(trifluoromethyl)benzyl)piperazine-1-carbonyl)-1H-pyrazol-3-yl) methanesulfonamide] | – | 0 to 25% | – | ≥ 75% | 0 to 25% | ≤ 0.1 µM

Reference: patent US10519134B2, “Pyrazole compounds and methods of making and using same” (Lundbeck La Jolla Research Center, Inc., priority 2015, dated 2019)
